Assay results taken from patent US8822517B2, “Arylosulfonamides for the treatment of CNS diseases” (Adamed SP. Z O.O., priority 2010, dated 2014).

How the values were obtained:
[1] = molecular target: T1, serotonine transporter (SERT) receptor (Homo sapiens, UniProt P31645); test: Binding assay SERT (h), [3H]imipramine, CHO cells; details: read-out: SERT [%]
T1 construct: expressed in transfected cells; host or cells: CHO cells
Method: (§1) The specific ligand binding to the receptors is defined as the difference between the total binding and the nonspecific binding determined in the presence of an excess of so unlabelled ligand.
(§2) The specific Ligand binding to the receptor is defined as the difference between total and non-specific binding determined in the presence of an excess of unlabelled ligand. The compounds were tested at a concentration of 1×10^−6 M, and scintillation counting was the method of detection of ligand binding.

adrenergic α1 receptor = test: Binding assay α1 (non-selective), [3H]prazosin, rat cerebral cortex; details: percent inhibition of control specific binding; compounds tested at 1×10^−6 M
Method: as §1, §2

dopaminergic D3 receptor = dopaminergic D3 receptor (Homo sapiens, UniProt P35462); test: Binding assay D3 (h), [3H]methyl-spiperone, CHO cells; parameters: expressed in transfected cells; host or cells: CHO cells; details: read-out: D3 [%]
Method: as §1, §2

[2] = molecular target: serotoninergic 5-HT6 receptor (Homo sapiens, UniProt P50406); test: Binding assay 5-HT6 (h), [3H]LSD, CHO cells; parameters: expressed in transfected cells; host or cells: CHO cells; details: read-out: 5-HT6
Method: as §1, §2

[3] = molecular target: serotoninergic 5-HT7 receptor (Homo sapiens, UniProt P34969); test: Binding assay 5-HT7 (h), [3H]LSD, CHO cells; parameters: expressed in transfected cells; host or cells: CHO cells; details: read-out: 5-HT7
Method: as §1, §2

dopaminergic D2 receptor = dopaminergic D2 receptor (Homo sapiens, UniProt P14416); test: Binding assay D2S (h), [3H]methyl-spiperone, HEK-293 cells; parameters: expressed in transfected cells; host or cells: HEK-293 cells; details: read-out: D2 [%]
Method: as §1, §2

[4] = molecular target: T2, serotoninergic 5-HT1A receptor (Homo sapiens, UniProt P08908); test: Binding assay 5-HT1A (h), [3H]8-OH-DPAT, HEK-293 cells; parameters: expressed in transfected cells; host or cells: HEK-293 cells; details: read-out: 5-HT1A
T2 sequence (P08908 1-422): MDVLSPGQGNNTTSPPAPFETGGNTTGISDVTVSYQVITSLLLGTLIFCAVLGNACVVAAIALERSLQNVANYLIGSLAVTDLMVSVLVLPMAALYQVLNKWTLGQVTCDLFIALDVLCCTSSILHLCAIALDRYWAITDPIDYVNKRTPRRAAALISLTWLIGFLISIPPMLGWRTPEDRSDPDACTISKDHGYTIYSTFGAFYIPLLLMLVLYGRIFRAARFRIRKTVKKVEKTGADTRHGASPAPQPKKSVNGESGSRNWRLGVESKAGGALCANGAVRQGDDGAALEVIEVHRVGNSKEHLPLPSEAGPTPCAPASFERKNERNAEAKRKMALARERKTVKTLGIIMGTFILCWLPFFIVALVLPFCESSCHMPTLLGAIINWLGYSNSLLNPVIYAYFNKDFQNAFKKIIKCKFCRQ
Method: as §1, §2

[5] = molecular target: serotoninergic 5-HT2A receptor (Homo sapiens, UniProt P28223); test: Binding assay 5-HT2A (h), [3H]ketanserin, HEK-293 cells; parameters: expressed in transfected cells; host or cells: HEK-293 cells; details: read-out: 5-HT2A
Method: as §1, §2

Chain of serotoninergic 5-HT7 receptor (P34969 whole entry): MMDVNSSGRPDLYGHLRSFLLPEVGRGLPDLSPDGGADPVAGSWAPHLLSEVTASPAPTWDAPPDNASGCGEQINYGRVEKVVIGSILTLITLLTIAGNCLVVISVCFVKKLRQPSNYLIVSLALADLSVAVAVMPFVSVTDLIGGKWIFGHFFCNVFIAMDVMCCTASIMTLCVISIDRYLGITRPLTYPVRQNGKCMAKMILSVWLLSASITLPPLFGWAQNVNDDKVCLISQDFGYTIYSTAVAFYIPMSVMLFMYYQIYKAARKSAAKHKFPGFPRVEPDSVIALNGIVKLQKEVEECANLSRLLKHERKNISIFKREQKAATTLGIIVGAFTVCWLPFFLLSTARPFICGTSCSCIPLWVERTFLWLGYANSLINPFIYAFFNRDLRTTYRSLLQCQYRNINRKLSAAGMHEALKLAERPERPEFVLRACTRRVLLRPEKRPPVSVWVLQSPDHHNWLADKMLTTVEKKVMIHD
Chain of serotoninergic 5-HT6 receptor (P50406 whole entry): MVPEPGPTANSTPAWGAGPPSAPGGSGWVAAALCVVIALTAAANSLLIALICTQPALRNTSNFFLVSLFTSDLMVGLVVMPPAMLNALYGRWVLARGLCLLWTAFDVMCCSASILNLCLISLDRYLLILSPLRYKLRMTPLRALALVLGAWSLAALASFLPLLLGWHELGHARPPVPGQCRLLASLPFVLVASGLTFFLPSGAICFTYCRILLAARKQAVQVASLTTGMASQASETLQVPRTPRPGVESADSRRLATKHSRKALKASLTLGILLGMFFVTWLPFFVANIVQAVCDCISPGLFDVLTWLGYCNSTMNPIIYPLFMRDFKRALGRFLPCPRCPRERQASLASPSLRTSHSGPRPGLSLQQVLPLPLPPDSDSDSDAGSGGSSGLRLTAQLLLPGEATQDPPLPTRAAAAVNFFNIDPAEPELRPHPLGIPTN
Chain of serotoninergic 5-HT2A receptor (P28223 whole entry): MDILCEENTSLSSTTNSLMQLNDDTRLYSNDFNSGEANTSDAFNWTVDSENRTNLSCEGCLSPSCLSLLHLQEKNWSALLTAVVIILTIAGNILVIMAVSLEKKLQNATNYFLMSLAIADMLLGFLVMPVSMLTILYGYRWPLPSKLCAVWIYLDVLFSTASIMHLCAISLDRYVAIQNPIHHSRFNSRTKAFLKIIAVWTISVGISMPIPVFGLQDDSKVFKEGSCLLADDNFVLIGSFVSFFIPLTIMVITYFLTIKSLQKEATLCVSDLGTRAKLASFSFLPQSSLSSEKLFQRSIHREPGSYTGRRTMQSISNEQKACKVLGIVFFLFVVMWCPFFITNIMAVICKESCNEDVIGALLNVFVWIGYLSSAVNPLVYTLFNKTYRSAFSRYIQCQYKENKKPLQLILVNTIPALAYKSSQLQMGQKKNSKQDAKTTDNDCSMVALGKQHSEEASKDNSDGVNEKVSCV
Chain of dopaminergic D2 receptor (P14416 1-414 isoform P14416-2): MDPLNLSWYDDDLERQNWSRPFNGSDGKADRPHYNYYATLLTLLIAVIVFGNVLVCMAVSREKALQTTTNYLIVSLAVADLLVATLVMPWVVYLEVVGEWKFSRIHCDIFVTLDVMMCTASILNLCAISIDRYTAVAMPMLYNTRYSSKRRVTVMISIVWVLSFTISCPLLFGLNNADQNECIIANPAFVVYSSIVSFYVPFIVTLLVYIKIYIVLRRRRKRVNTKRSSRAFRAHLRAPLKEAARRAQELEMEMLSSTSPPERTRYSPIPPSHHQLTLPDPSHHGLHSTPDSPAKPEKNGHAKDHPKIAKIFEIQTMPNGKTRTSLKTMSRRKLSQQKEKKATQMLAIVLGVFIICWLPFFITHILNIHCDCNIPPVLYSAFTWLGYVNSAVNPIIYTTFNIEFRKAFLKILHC
Chain of dopaminergic D3 receptor (P35462 whole entry): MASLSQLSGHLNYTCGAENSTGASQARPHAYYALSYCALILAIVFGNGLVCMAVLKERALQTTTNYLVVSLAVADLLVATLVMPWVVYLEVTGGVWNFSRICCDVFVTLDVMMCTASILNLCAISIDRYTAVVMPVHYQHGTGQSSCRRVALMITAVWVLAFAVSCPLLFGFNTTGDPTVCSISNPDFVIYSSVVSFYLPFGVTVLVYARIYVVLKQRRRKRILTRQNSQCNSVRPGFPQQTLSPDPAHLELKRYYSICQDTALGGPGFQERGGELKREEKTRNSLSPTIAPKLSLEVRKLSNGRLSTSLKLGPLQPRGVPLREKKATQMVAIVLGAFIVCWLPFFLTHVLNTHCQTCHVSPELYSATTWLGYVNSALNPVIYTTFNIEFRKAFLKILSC
T1 sequence (P31645 whole entry): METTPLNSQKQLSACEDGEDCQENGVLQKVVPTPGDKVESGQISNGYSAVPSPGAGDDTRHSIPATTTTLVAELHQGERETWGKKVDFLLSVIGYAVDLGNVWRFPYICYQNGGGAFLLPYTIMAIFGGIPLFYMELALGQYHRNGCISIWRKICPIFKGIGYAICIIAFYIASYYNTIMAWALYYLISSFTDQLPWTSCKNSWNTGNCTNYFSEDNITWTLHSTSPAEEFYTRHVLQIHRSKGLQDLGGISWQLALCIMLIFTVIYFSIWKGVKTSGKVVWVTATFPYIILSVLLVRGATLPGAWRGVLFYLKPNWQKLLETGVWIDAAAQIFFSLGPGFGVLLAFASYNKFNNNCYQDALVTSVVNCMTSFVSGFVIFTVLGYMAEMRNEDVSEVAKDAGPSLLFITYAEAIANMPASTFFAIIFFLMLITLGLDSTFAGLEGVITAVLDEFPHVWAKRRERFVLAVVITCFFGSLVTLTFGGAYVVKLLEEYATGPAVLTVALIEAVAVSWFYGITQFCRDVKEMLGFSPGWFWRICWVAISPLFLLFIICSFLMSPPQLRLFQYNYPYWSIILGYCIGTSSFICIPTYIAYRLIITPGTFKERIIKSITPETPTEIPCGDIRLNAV

Compound	inhibition at 1 µM [1] [%]	α1 [%] (adrenergic α1 receptor)	inhibition at 1 µM (dopaminergic D3 receptor) [%]	inhibition at 1 µM [2] [%]	inhibition at 1 µM [3] [%]	inhibition at 1 µM (dopaminergic D2 receptor) [%]	inhibition at 1 µM [4] [%]	inhibition at 1 µM [5] [%]
Cc1[nH]c2ccc(Cl)cc2c1C1=CCN(CCCNS(=O)(=O)c2cccc(F)c2)CC1 [Compound 140, N-[3-[4-(5-Chloro-2-methyl-1H-indol-3-yl)-3,6-dihydro-2H-pyridin-1-yl]propyl]-3-fluorobenzenesulphonamide]	14	17	73	92	81	47	56	68
COc1cccc(S(=O)(=O)NCCCN2CCN(c3nsc4ccccc34)CC2)c1 [Compound 255, N-[3-[4-(1,2-Benzothiazol-3-yl)piperazin-1-yl]propyl]-3-methoxybenzenesulphonamide]	29	92	82	68	91	98	93	84
O=S(=O)(NCCCCN1CCN(c2cccc3c2OCCO3)CC1)c1ccc2cn[nH]c2c1 [Compound 402, N-[4-[4-(2,3-Dihydro-1,4-benzodioxin-5-yl)piperazin-1-yl]butyl]-1H-indazole-6-sulphonamide]	16	94	89	1	100	68	102	76
O=S(=O)(NCCCN1CCN(c2nsc3ccccc23)CC1)c1ccc(OC(F)(F)F)cc1 [Compound 259, N-[3-[4-(1,2-Benzothiazol-3-yl)piperazin-1-yl]propyl]-4-(trifluoromethoxy)benzenesulphonamide]	16	88	85	74	96	93	97	56
O=S(=O)(NCCCCN1CCN(c2nsc3ccccc23)CC1)c1cnc2ccccn12 [Compound 246, N-[4-[4-(1,2-Benzothiazol-3-yl)piperazin-1-yl]butyl]imidazo[1,2-a]pyridine-3-sulphonamide]	31	99	86	49	86	98	91	88
O=S(=O)(NCCCCN1CCN(c2cccc3c2OCCO3)CC1)c1cccc(Br)c1 [Compound 391, 3-Bromo-N-[4-[4-(2,3-dihydro-1,4-benzodioxin-5-yl)piperazin-1-yl]butyl]benzenesulphonamide]	-28	90	85	19	92	76	97	68
O=S(=O)(NCCCCN1CCN(c2cccc3c2OCCO3)CC1)c1ccc(F)c(F)c1 [Compound 389, N-[4-[4-(2,3-Dihydro-1,4-benzodioxin-5-yl)piperazin-1-yl]butyl]-3,4-difluorobenzenesulphonamide]	44	93	85	19	93	50	118	56
O=S(=O)(NCCCN1CCN(c2nsc3ccccc23)CC1)c1c[nH]c2ncccc12 [Compound 270, N-[3-[4-(1,2-Benzothiazol-3-yl)piperazin-1-yl]propyl]-1H-pyrrolo[2,3-b]pyridine-3-sulphonamide]	12	88	82	70	82	74	75	89
O=S(=O)(NCCCN1CCN(c2cccc3c2OCCO3)CC1)c1cccc(F)c1 [Compound 409, N-[3-[4-(2,3-Dihydro-1,4-benzodioxin-5-yl)piperazin-1-yl]propyl]-3-fluorobenzenesulphonamide]	2	81	85	-9	91	79	81	66
O=S(=O)(NCCCN1CCC(c2noc3cc(F)ccc23)CC1)c1ccc(C(F)(F)F)cc1 [Compound 334, N-[3-[4-(6-Fluoro-1,2-benzoxazol-3-yl)piperidin-1-yl]propyl]-4-(trifluoromethyl)-benzenesulphonamide]	30	105	96	98	85	75	86	90
Cc1cccc(S(=O)(=O)NCCCN2CCN(c3cccc4[nH]c(=O)[nH]c34)CC2)c1 [Compound 426, 3-Methyl-N-[3-[4-(2-oxo-1,3-dihydrobenzimidazol-4-yl)piperazin-1-yl]propyl]benzenesulphonamide]	-18	67	94	-4	85	28	79	20
Cc1cc(S(=O)(=O)NCCCCN2CCC(c3noc4cc(F)ccc34)CC2)c(C)s1 [Compound 309, N-[4-[4-(6-Fluoro-1,2-benzoxazol-3-yl)piperidin-1-yl]butyl]-2,5-dimethyl-thiophene-3-sulphonamide]	-5	103	90	79	87	84	64	88
O=S(=O)(NCCCCN1CCC(c2noc3cc(F)ccc23)CC1)c1cccc(C(F)(F)F)c1 [Compound 303, N-[4-[4-(6-Fluoro-1,2-benzoxazol-3-yl)piperidin-1-yl]butyl]-3-(trifluoromethyl)-benzenesulphonamide]	9	97	97	90	98	108	35	96
Cc1c(S(=O)(=O)NCCCCN2CCN(c3cccc4[nH]c(=O)[nH]c34)CC2)sc2ccc(Cl)cc12 [Compound 165, 5-Chloro-3-methyl-N-[4-[4-(2-oxo-1,3-dihydrobenzimidazol-4-yl)piperazin-1-yl]butyl]-1-benzothiophene-2-sulfonamide]	4	47	89	-16	86	64	70	37
O=S(=O)(NCCCCN1CCN(c2nsc3ccccc23)CC1)c1c[nH]c2ncccc12 [Compound 247, N-[4-[4-(1,2-Benzothiazol-3-yl)piperazin-1-yl]butyl]-1H-pyrrolo[2,3-b]pyridine-3-sulphonamide]	14	98	83	93	93	104	78	88
Cc1[nH]c2ccc(Cl)cc2c1C1=CCN(CCCCNS(=O)(=O)c2cccc(Cl)c2)CC1 [Compound 137, N-[4-[4-(5-Chloro-2-methyl-1H-indol-3-yl)-3,6-dihydro-2H-pyridin-1-yl]butyl]-3-chlorobenzenesulphonamide]	38	10	92	91	33	65	39	47
